Experiment: xn = mol fraction of the nth substance listed
Details: 100.9 kPa, Liquid; for viscosity: Concentric cylinders viscometry; for speed of sound: Single path-length method; for mass density: Vibrating tube method

CCCC(=O)[O-].CC[NH2+]CC [diethylammonium butanoate] + O
Details | mass density [kg/m3] | speed of sound [m/s] | viscosity [mPa·s]
283.15 K, x1 = 0.0122 | – | – | 2.24
283.15 K, x1 = 0.0123 | 1003.65 | 1576.3 | –
283.15 K, x1 = 0.0451 | – | – | 6.91
283.15 K, x1 = 0.0453 | 1013.08 | 1794.6 | –
283.15 K, x1 = 0.0999 | – | – | 19.26
283.15 K, x1 = 0.1005 | 1011.54 | 1814.6 | –
283.15 K, x1 = 0.143 | – | – | 32.03
283.15 K, x1 = 0.1439 | 1001.71 | 1786.4 | –
283.15 K, x1 = 0.2051 | – | – | 56.72
283.15 K, x1 = 0.2067 | 989.91 | 1733.5 | –
283.15 K, x1 = 0.3064 | – | – | 106.48
283.15 K, x1 = 0.3096 | 976.25 | – | –
283.15 K, x1 = 0.4879 | – | – | 158.58
283.15 K, x1 = 0.4951 | 956.67 | 1577.4 | –
283.15 K, x1 = 0.6684 | – | – | 158.29
283.15 K, x1 = 0.6812 | 941.81 | 1516.2 | –
283.15 K, x1 = 0.7974 | 930.25 | 1494.8 | –
283.15 K, x1 = 0.974 | 925.8 | 1460.5 | 130.18
285.65 K, x1 = 0.0122 | – | – | 2.07
285.65 K, x1 = 0.0451 | – | – | 6.16
285.65 K, x1 = 0.0999 | – | – | 16.84
285.65 K, x1 = 0.143 | – | – | 27.94
285.65 K, x1 = 0.2051 | – | – | 49.1
285.65 K, x1 = 0.3064 | – | – | 91.1
285.65 K, x1 = 0.4879 | – | – | 135.58
285.65 K, x1 = 0.6684 | – | – | 135.69
285.65 K, x1 = 0.974 | – | – | 112.13
288.15 K, x1 = 0.0122 | – | – | 1.91
288.15 K, x1 = 0.0123 | 1002.55 | 1586.3 | –
288.15 K, x1 = 0.0451 | – | – | 5.5
288.15 K, x1 = 0.0453 | 1010.64 | 1786.6 | –
288.15 K, x1 = 0.0999 | – | – | 14.79
288.15 K, x1 = 0.1005 | 1007.9 | 1802.4 | –
288.15 K, x1 = 0.143 | – | – | 24.41
288.15 K, x1 = 0.1439 | 996.76 | 1773 | –
288.15 K, x1 = 0.2051 | – | – | 42.55
288.15 K, x1 = 0.2067 | 985.95 | 1718.7 | –
288.15 K, x1 = 0.3064 | – | – | 78.15
288.15 K, x1 = 0.3096 | 972.8 | – | –
288.15 K, x1 = 0.4879 | – | – | 116.04
288.15 K, x1 = 0.4951 | 952.3 | 1561.4 | –
288.15 K, x1 = 0.6684 | – | – | 116.61
288.15 K, x1 = 0.6812 | 938.34 | 1499.7 | –
288.15 K, x1 = 0.7974 | 926.65 | 1479.8 | –
288.15 K, x1 = 0.974 | 922.1 | 1448.3 | 96.9
290.65 K, x1 = 0.0122 | – | – | 1.77
290.65 K, x1 = 0.0451 | – | – | 4.96
290.65 K, x1 = 0.0999 | – | – | 13.09
290.65 K, x1 = 0.143 | – | – | 21.48
290.65 K, x1 = 0.2051 | – | – | 37.08
290.65 K, x1 = 0.3064 | – | – | 67.44
290.65 K, x1 = 0.4879 | – | – | 99.81
290.65 K, x1 = 0.6684 | – | – | 100.54
290.65 K, x1 = 0.974 | – | – | 84.07
293.15 K, x1 = 0.0122 | – | – | 1.64
293.15 K, x1 = 0.0123 | 1001.45 | 1594.8 | –
293.15 K, x1 = 0.0451 | – | – | 4.49
293.15 K, x1 = 0.0453 | 1008.2 | 1779.5 | –
293.15 K, x1 = 0.0999 | – | – | 11.64
293.15 K, x1 = 0.1005 | 1004.13 | 1789.3 | –
293.15 K, x1 = 0.143 | – | – | 18.97
293.15 K, x1 = 0.1439 | 992.35 | 1759.3 | –
293.15 K, x1 = 0.2051 | – | – | 32.47
293.15 K, x1 = 0.2067 | 984.2 | 1705.2 | –
293.15 K, x1 = 0.3064 | – | – | 58.44
293.15 K, x1 = 0.3096 | 969.35 | 1629.1 | –
293.15 K, x1 = 0.4879 | – | – | 86.09
293.15 K, x1 = 0.4951 | 949.58 | 1539.3 | –
293.15 K, x1 = 0.6684 | – | – | 87.06
293.15 K, x1 = 0.6812 | 937.26 | 1485.3 | –
293.15 K, x1 = 0.7974 | 923.05 | 1464.7 | –
293.15 K, x1 = 0.974 | 918.5 | 1433.9 | 73.19
295.65 K, x1 = 0.0122 | – | – | 1.53
295.65 K, x1 = 0.0451 | – | – | 4.05
295.65 K, x1 = 0.0999 | – | – | 10.38
295.65 K, x1 = 0.143 | – | – | 16.84
295.65 K, x1 = 0.2051 | – | – | 28.55
295.65 K, x1 = 0.3064 | – | – | 50.88
295.65 K, x1 = 0.4879 | – | – | 74.58
295.65 K, x1 = 0.6684 | – | – | 75.69
295.65 K, x1 = 0.974 | – | – | 63.97
298.15 K, x1 = 0.0122 | – | – | 1.43
298.15 K, x1 = 0.0123 | 1000.1 | 1601.8 | –
298.15 K, x1 = 0.0451 | – | – | 3.69
298.15 K, x1 = 0.0453 | 1005.56 | 1770.9 | –
298.15 K, x1 = 0.0999 | – | – | 9.31
298.15 K, x1 = 0.1005 | 1000.56 | 1776.6 | –
298.15 K, x1 = 0.143 | – | – | 15.02
298.15 K, x1 = 0.1439 | 988.22 | 1745.3 | –
298.15 K, x1 = 0.2051 | – | – | 25.19
298.15 K, x1 = 0.2067 | 979.99 | 1690.3 | –
298.15 K, x1 = 0.3064 | – | – | 44.32
298.15 K, x1 = 0.3096 | 965.6 | 1613.5 | –
298.15 K, x1 = 0.4879 | – | – | 64.82
298.15 K, x1 = 0.4951 | 945.79 | 1523.9 | –
298.15 K, x1 = 0.6684 | – | – | 66.04
298.15 K, x1 = 0.6812 | 933.71 | 1468.9 | –
298.15 K, x1 = 0.7974 | 919.45 | 1455.8 | –
298.15 K, x1 = 0.974 | 914.7 | 1417.5 | 56.14
300.65 K, x1 = 0.0122 | – | – | 1.34
300.65 K, x1 = 0.0451 | – | – | 3.36
300.65 K, x1 = 0.0999 | – | – | 8.4
300.65 K, x1 = 0.143 | – | – | 13.44
300.65 K, x1 = 0.2051 | – | – | 22.34
300.65 K, x1 = 0.3064 | – | – | 38.93
300.65 K, x1 = 0.4879 | – | – | 56.68
300.65 K, x1 = 0.6684 | – | – | 57.86
300.65 K, x1 = 0.974 | – | – | 49.5
303.15 K, x1 = 0.0122 | – | – | 1.26
303.15 K, x1 = 0.0123 | 998.8 | 1607.5 | –
303.15 K, x1 = 0.0451 | – | – | 3.08
303.15 K, x1 = 0.0453 | 1002.83 | 1762.1 | –
303.15 K, x1 = 0.0999 | – | – | 7.62
303.15 K, x1 = 0.1005 | 997.23 | 1763.5 | –
303.15 K, x1 = 0.143 | – | – | 12.08
303.15 K, x1 = 0.1439 | 984.45 | 1731.1 | –
303.15 K, x1 = 0.2051 | – | – | 19.91
303.15 K, x1 = 0.2067 | 976.3 | 1675.2 | –
303.15 K, x1 = 0.3064 | – | – | 34.33
303.15 K, x1 = 0.3096 | 960.9 | 1597.6 | –
303.15 K, x1 = 0.4879 | – | – | 49.68
303.15 K, x1 = 0.4951 | 941.96 | 1509.1 | –
303.15 K, x1 = 0.6684 | – | – | 50.88
303.15 K, x1 = 0.6812 | 930.52 | 1452.3 | –
303.15 K, x1 = 0.7974 | 915.75 | 1439.9 | –
303.15 K, x1 = 0.974 | 910.9 | 1400.2 | 43.73
305.65 K, x1 = 0.0122 | – | – | 1.19
305.65 K, x1 = 0.0451 | – | – | 2.84
305.65 K, x1 = 0.0999 | – | – | 6.89
305.65 K, x1 = 0.143 | – | – | 10.89
305.65 K, x1 = 0.2051 | – | – | 17.8
305.65 K, x1 = 0.3064 | – | – | 30.43
305.65 K, x1 = 0.4879 | – | – | 43.74
305.65 K, x1 = 0.6684 | – | – | 44.91
305.65 K, x1 = 0.974 | – | – | 38.76
308.15 K, x1 = 0.0122 | – | – | 1.12
308.15 K, x1 = 0.0123 | – | 1611.9 | –
308.15 K, x1 = 0.0451 | – | – | 2.62
308.15 K, x1 = 0.0453 | – | 1753.1 | –
308.15 K, x1 = 0.0999 | – | – | 6.28
308.15 K, x1 = 0.1005 | – | 1750.2 | –
308.15 K, x1 = 0.143 | – | – | 9.83
308.15 K, x1 = 0.1439 | – | 1716.8 | –
308.15 K, x1 = 0.2051 | – | – | 15.99
308.15 K, x1 = 0.3064 | – | – | 27.04
308.15 K, x1 = 0.4879 | – | – | 38.47
308.15 K, x1 = 0.6684 | – | – | 39.77
308.15 K, x1 = 0.974 | – | – | 34.5

Reference: the NIST ThermoML archive (doi:10.1016/j.fluid.2017.12.001)
